Data as given in patent US20100061928A1, “LABELLED ANALOGUES OF HALOBENZAMIDES AS RADIOPHARMACEUTICALS” (Institut National De La Sante et De La Recherche Medicale …, priority 2006, published 2010).
Counter-ions that a name gives are not always drawn.

Columns and labels:
[1] = test system: melanoma grafted subcutaneously (B16 F0 cells); assay: Antitumour effectiveness by systemic administration after labelling with ^131I; assay type: in vivo, C57BL6 mice
Experimental: The study relates to 20 C57B16 mice bearing a melanoma grafted subcutaneously by injection of 50 000 B16 F0 cells (0.1 ml). On the 17th day, the animals are weighed and the tumours are measured in two dimensions (L, l), the tumour volume being expressed by L×l^2×½. On the 18th day (D18), the mice are divided into two groups, the labelled compound [^131I]-31 with a high specific activity is administered by the i.v. route (37 MBq; 0.2 ml) to 10 mice and 10 constitute the control batch. The monitoring of the animals is carried out with all the necessary radioprotection measures and in particular the removal of the contaminated bedding, the animals are weighed and the tumours are measured every two days. Taking into account the volume of the tumours and ethical considerations, the surviving animals were euthenized on the 20th day after injection, i.e. 38 days after the tumour graft. […] The evaluation of the effectiveness of an i.v. administration of [^131I]-31 on tumour growth of C57BL6 mice which have received a subcutaneous graft of B 16 melanoma 18 days before treatment is represented in FIG. 2. The times on the abscissa are given with respect to the day of inoculation of the tumours and with respect to the day of treatment.
The evaluation of the effectiveness of an i.v. administration of [^131I]-46 on tumour growth of C57BL6 mice which have received a subcutaneous graft of B 16 melanoma is represented in FIG. 3. The times on the abscissa are given with respect to the day of inoculation of the tumours and with respect to the first day of treatment. Under these conditions, the median of survival is extended and changes from 32 days for the control animals to 39 days for the treated animals. This experiment was repeated according to the same protocol and fully superimposable results were obtained.

[2] = test system: B16 F0 murine melanoma cells; assay: Colony forming technique: chemotherapeutic and radiotherapeutic (^125I) effects in vitro; assay type: cell-based; settings: comparison for the compounds labelled with iodine-125 with a high specific activity
Experimental: The colony forming technique is involved, that is to say the growth of colonies of clones starting from tumour cells (B16 F0 murine melanoma cells) inoculated at a low concentration. This method makes it possible to visualize the cytotoxic and cytostatic properties of the compounds studied. The study was carried out in three parts:
The experiment is carried out on 6-well plates where 200 cells are inoculated in 2 ml of DMEM medium. After 20 hours, the medium is withdrawn and replaced with 2 ml of medium comprising the labelled compound at the desired concentration. This study is carried out in comparison with control wells comprising DMEM medium alone. […] The plates are incubated for 8 days and then the medium is withdrawn. The wells are rinsed with PBS and methanol is added for 3 minutes. Once attached, the cells are coloured with crystal violet with a contact time of 3 minutes. Subsequently, the colonies comprising more than 50 cells are counted using a dedicated counter. The growth of the treated colonies of cells is quantified in comparison with the controls. The activity of the product is expressed by a percentage of inhibition:
100−[(number of treated colonies)/(number of control colonies)]×100

human melanoma (M4Beu) = assay: Cytotoxicity, Hoechst test, M4Beu; settings: M4Beu human cells, compared with amsacrine
Experimental: The B16 F0, M4Beu and fibroblast lines are cultured in 75 cm^2 dishes comprising 12 ml of Eagle's essential medium with Earle's salts and Glutamax (Gibco-BRL, Paisley, Scotland) supplemented with 10% foetal calf serum, a solution of vitamins at 1× (Gibco), 1 mM sodium pyruvate (Gibco), a solution of nonessential amino acids at 1× (Gibco) and 4 μg/ml of gentamicin (antibiotic).
The cells are maintained at 37° C. in an incubator under an atmosphere comprising 5% CO2.
The cells (5×10^3) in 150 μl of culture medium are inoculated in 96-well plates (Nunclon™, Nunc, Roskilde, Denmark). […] The stock solutions (200×) are prepared with DMSO and are then stored at −20° C. 50 μl of a solution comprising stock solution and culture medium are subsequently added to the various wells (taking into account the different dilutions). Each test is carried out in triplicate.
The amount of cellular DNA is subsequently measured by the Hoechst test. […] The fluorescence obtained is measured using a Fluoroskan 96-well at the excitation wavelength at 360 nm and emission wavelength at 460 nm. Under these conditions, the fluorescence is proportional to the cell biomass in each well. The percentage of survival is defined by the fluorescence in each well (treated) with respect to the fluorescence of the control wells (drug-free), the blanks being subtracted (drug-free and cell-free wells).

tumour = assay: Dosimetry with regard to the tumour (MIRD programme, extrapolated to ^131I)
[3] = test system: grafted B16 F0 murine melanoma tumour; assay: Biodistribution of the ^125I-labelled molecules in the melanoma-bearing mouse (autoradiography of whole-body sections)
[4] = single i.v. administration 37 MBq on D18 after graft, versus controls

CCN(CC)CCNC(=O)c1cnc2cc([131I])ccc2n1.Cl [[^131I]-46, [^131I]-N-(2-diethylaminoethyl)-6-iodoquinoxaline-2-carboxamide hydrochloride]
tumour growth (in words) ([1]; two doses of 18.5 MBq i.v., 6 and 10 days after induction of the tumours): clearly slowed down
median of survival, treated animals ([1]; two doses of 18.5 MBq i.v., 6 and 10 days after induction of the tumours, control animals 32 days): 39 days

[125I-].[Na+] [Na^125I, sodium iodide Na^125I, reference compound]
effect on colony growth (in words) [2]: without effect

CCN(CC)CCNC(=O)c1cccc2c(Nc3ccc(NS(C)(=O)=O)cc3OC)c3cc(I)ccc3nc12 [compound 129, N-(2-diethylaminoethyl)-7-iodo-9-(4-methanesulphonamido-2-methoxyanilino)acridine-4-carboxamide dihydrochloride]
cytotoxic effectiveness (in words) (human melanoma (M4Beu)): best effectiveness with regard to the M4Beu human cells, close to the values obtained for amscrine
Effective period (tumour; extrapolated to 131I labelling): 88.3 h
Biological period (tumour; from biodistribution data): 162.3 hours
Biodistribution, Mean, GB ([3]; 1 H): 20.19
Biodistribution, Mean, GB ([3]; 6 H): 166.43
Biodistribution, Mean, brain ([3]; 1 H): 0.12
Biodistribution, Mean, brain ([3]; 3 H): 0.03
Biodistribution, Mean, muscle ([3]; 3 H): 0.48
Biodistribution, Mean, muscle ([3]; 6 H): 0.44
Biodistribution, Mean, thyroid ([3]; thyroid, 6 H): 34.81

CCN(CC)CCNC(=O)c1ccc2cc([131I])ccc2n1.Cl.Cl [[^131I]-31, [^131I]-N-(2-diethylaminoethyl)-6-iodoquinoline-2-carboxamide dihydrochloride]
median of survival (in words) [1, 4]: a significant difference regarding the median of survival was not demonstrated
tumour growth (in words) [1, 4]: markedly slowed down
